Test results reported in paper PMC9965520, “An Efficient Peptidomics Screening for Exogenous Substrates and Inhibitory Peptides of the Dipeptidase ACE from Milk Hydrolysate” (Pharmaceutics, 2023).
Read-outs that look alike come from different tables or passages of the source. No end group written: not given here.

Biological target: T1, ACE (Oryctolagus cuniculus, UniProt P12822)
T1 sequence (P12822 34-1310): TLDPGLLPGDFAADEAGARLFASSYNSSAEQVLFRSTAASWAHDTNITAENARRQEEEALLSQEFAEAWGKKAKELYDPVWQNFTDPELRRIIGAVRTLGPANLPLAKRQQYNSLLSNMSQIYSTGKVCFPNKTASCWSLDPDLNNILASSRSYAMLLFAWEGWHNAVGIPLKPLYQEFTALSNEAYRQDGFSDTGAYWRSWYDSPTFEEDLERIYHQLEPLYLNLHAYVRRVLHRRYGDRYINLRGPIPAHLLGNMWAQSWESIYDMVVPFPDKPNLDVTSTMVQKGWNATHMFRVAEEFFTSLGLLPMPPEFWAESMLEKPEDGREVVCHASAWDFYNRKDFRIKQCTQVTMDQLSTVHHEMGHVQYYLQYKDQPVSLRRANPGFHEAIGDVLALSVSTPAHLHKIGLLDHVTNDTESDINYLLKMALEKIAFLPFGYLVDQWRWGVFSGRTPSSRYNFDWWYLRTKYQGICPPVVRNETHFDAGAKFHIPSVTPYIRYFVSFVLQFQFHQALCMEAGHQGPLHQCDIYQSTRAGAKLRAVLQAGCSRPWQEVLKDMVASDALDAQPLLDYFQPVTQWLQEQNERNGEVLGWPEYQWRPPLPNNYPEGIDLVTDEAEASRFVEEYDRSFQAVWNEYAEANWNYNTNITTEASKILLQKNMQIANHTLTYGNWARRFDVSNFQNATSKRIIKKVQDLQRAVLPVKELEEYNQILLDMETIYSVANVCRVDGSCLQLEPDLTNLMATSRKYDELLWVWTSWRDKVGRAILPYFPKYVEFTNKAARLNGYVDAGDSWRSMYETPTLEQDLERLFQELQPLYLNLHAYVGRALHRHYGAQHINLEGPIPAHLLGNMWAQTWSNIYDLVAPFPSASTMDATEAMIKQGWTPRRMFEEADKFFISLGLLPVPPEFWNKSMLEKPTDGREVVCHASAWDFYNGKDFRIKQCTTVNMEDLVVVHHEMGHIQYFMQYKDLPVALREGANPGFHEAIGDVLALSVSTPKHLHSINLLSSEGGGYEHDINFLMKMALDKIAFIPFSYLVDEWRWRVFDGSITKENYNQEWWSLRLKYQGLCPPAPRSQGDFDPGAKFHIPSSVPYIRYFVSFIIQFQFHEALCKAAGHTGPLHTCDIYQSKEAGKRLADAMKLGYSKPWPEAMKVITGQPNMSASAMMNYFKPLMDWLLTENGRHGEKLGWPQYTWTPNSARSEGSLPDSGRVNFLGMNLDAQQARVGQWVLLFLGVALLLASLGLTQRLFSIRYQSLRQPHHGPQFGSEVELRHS
Experiment: ACE inhibitory (ACEI) assay with HHL as substrate, with and without ACE pre-incubation
Type: biochemical, rabbit
Parameters: ACE (EC 3.4.15.1, 1 unit) from rabbit lungs; purchased Sigma Chemical Co. (St. Louis, MO, USA); host or cells: rabbit lungs (tissue-derived enzyme)
Conditions: 37 °C, HA by HPLC-UV 228 nm, mean ± SD, triplicate
Experimental: The ACE inhibitory assay was performed based on the previous report with slight modification. […] The mixture was first incubated at 37 °C statically for 30 min, and then shaken at 200 rpm for another 30 min. The reaction was terminated using 60 µL of HCl (1 M). The hydrolyzed product of HHL, HA, was analyzed by HPLC (Hitachi Chromaster, Tokyo, Japan) equipped with a NUCLEODUR® C18 HTec column (4.6 mm × 250 mm; particle size 5 µm, Macherey-Nagel, Düren, Germany) and quantified by its chromatographic peak area. The mixture was separated using an isocratic elution with the solution containing 24% ACN and 0.1% TFA at a constant flow rate of 1 mL/min. The substrate and product were monitored using a UV-Vis detector at a wavelength of 228 nm. The ACEI activity (%) was calculated as shown below: ACEI activity (%) = [1 – (Ainhibitor/Ablank)] × 100% where Ainhibitor and Ablank were the resulting HA peak areas in the mixtures with and without inhibitors, respectively. Along with the peptide substrate’s ACEI activity, its IC50 value was also determined using a nonlinear regression between ACE inhibition (%), and the logarithm of inhibitor concentrations could be carried out with GraphPad Prism 5.0 (GraphPad Software, Inc., La Jolla, CA, USA).

[1] = no ACE pre-incubation, 2.5 mM HHL, ACE 0.05 mU/µL, borate buffer, 30 min static + 30 min 200 rpm, read-out: IC50 (μM) (Regular Assay)
[2] = peptide pre-incubated with ACE, then HHL assay, read-out: IC50 (μM) (Pre-Incubation)

Row | Substance | IC50 [1] [µM] | IC50 [2] [µM]
1 | LVYPFPGPIHNSL [LL-13] | 38.9 ± 2.05 | 27.3 ± 2.16
2 | YVPLGTQ [YQ-7] | 250 ± 7.9 | 189 ± 9.6
3 | FFVAPFPEVF [FF-10] | 104 ± 2.47 | 44.6 ± 3.06

These reach a lower IC50 [1]. Values come first.

Row | IC50 [1] [µM] | IC50 [2] [µM] | Substance
4 | 12.3 ± 0.37 | 71.9 ± 2.19 | LHLPLPLL [LL-8]
5 | 6.8 ± 0.23 | 25.3 ± 0.96 | AYFYPELFR [AR-9]
6 | 10.6 ± 0.17 | 17.8 ± 0.65 | HLPLPLLQSW [HW-10]
